Measured values: article PMC8387043, “Host Poly(A) Polymerases PAPD5 and PAPD7 Provide Two Layers of Protection That Ensure the Integrity and Stability of Hepatitis B Virus RNA” (Journal of Virology, 2021)
Read-outs that look alike come from different tables or passages of the source.

Experiments:
[1] = test system: HBV; assay: Antiviral assay in HBV-infected HepG2-NTCP cells; assay type: cell-based; conditions: Hepatitis B virus
[2] = test system: HBV; assay: Antiviral assay in HBV-infected primary human hepatocytes (PHH); assay type: cell-based; conditions: Hepatitis B virus, Hepatocyte
[3] = test system: HBV; assay: Multiple in vitro HBV replication models (summary statements); assay type: cell-based; conditions: Hepatitis B virus
Protocol: AB-452 and RG7834 both belong to the dihydroquinolizinones chemical class. The antiviral activities of AB-452 and its diastereomer ARB-169451 were evaluated using multiple in vitro HBV replication models, including HepG2.2.15 cells (which constitutively express HBV through the integrated viral genome), PLC/PRF/5 cells (a patient-derived hepatocellular carcinoma cell line only expressing HBsAg), and HBV-infected HepG2-NTCP cells or primary human hepatocytes (PHHs) in which viral replication was dependent on cccDNA transcription (Table 1).

[4] = test system: HSV-1/HSV-2; assay: Antiviral selectivity panel, CPE in Vero cells; assay type: cell-based, herpes simplex virus
Protocol: (§1) HepG2.2.15 (30,000 cells/well) were plated in 96-well collagen-treated plates and incubated at 37°C. Compounds were half-log serially diluted and added in duplicate to 96-well microtiter plates. The plates were incubated for a total duration of 6 days, after which the culture medium was removed for the HBsAg and HBeAg CLIA assays (AutoBio Diagnostics Co., China) performed according to the manufacturer’s instructions. Secreted HBV DNA was extracted (Realtime Ready cell lysis kit; Roche, Mannheim, Germany) and quantified in a qPCR assay (LightCycler 480 SYBR green I master mix; Roche) with the 5′-[…]-3′ (sense) and 5′-[…]-3′ (antisense) primers using the PCR conditions of denaturing at 95°C for 5 min followed by 40 cycles of amplification at 95°C for 15 s and 60°C for 30 s. Antiviral selectivity studies against a panel of different DNA and RNA viruses were performed at ImQuest BioSicences (Frederick, MD, USA). Briefly, test compounds were evaluated using 6 doses, including the highest concentration of 30 μM and five serial half-logarithmic dilutions in triplicate for the antiviral assays.

[5] = test system: HIV; assay: Antiviral selectivity panel, CPE in CEM-SS cells; assay type: cell-based; conditions: Human immunodeficiency virus 1
[6] = test system: HCV; assay: Antiviral selectivity panel, luciferase in Huh-7 cells; assay type: cell-based; conditions: Hepatitis C virus; Huh-7, Luciferase
[7] = test system: DENV2; assay: Antiviral selectivity panel, CPE in BHK21 cells; assay type: cell-based, Dengue virus 2; conditions: Dengue virus, DENV2, BHK-21
Protocol: as §1

[8] = test system: WNV; assay: Antiviral selectivity panel, CPE in Vero76 cells; assay type: cell-based; conditions: West Nile virus, Vero 76
Protocol: as §1

[9] = test system: Human rhinovirus; assay: Antiviral selectivity panel, CPE in H1-HeLa cells; assay type: cell-based; conditions: Human rhinovirus sp.
[10] = test system: HBV; assay: Intracellular HBV pgRNA and sRNA by Northern blotting in HepG2.2.15 cells; assay type: cell-based, hepatitis B virus; conditions: HepG2.2.15, 48 h, 1,000 nM
Protocol: Total cellular RNA was extracted from HepG2.2.15 or HepAD38 cells treated with or without antiviral compounds using TRIzol reagent according to the manufacturer's directions (Thermo Fisher Scientific, Waltham, MA). Northern blotting was performed as described previously ([1]). Briefly, total RNA was separated in a 1.5% agarose gel and transferred onto an Amersham Hybond-XL membrane (product no. GERPN303S; GE Healthcare, IL, USA). Membranes were probed with an [α-^32P]UTP (PerkinElmer, CT, USA)-labeled minus strand-specific full-length HBV riboprobe (3.2 kb) transcribed from plasmid pSP65_HBV(+) DNA. Membranes were exposed to a phosphoimager screen, and the hybridization signals were quantified using Image Studio software (Li-Cor Biosciences, NE, USA).

[11] = molecular target: T1, recombinant human PAPD5 (Homo sapiens, UniProt Q8NDF8); assay: PAPD5 ATP depletion assay; assay type: biochemical; conditions: truncated recombinant human PAPD5, ATP depletion
T1 construct: PAPD5 (amino acids 186 to 518; XM_011523275); 10xHis (N); Flag (N); TEV cleavage site (N); host or cells: E. coli BL21(DE3), vector pET-24a(+)
T1 sequence (Q8NDF8 106-438 limits assumed): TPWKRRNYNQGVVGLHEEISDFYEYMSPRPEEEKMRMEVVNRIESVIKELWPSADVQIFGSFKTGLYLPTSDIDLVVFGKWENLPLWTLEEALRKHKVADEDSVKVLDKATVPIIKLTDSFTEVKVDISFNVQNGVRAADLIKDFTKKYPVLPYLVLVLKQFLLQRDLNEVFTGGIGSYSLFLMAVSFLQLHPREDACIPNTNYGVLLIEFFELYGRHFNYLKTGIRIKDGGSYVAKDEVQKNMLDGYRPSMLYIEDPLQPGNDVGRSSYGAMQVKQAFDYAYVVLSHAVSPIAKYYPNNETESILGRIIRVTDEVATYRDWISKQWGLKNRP
Protocol: Molecular cloning, expression, and purification of the recombinant human PAPD5 and PAPD7 proteins were performed at Xtal BioStructures (MA, USA). PAPD5 (amino acids 186 to 518; GenBank accession no. XM_011523275) and PAPD7 (amino acids 226 to 558; GenBank accession no. NM_006999.6) genes comprising of nucleotidyltransferase and PAP-associated domains were codon optimized, synthesized, and inserted in the expression vector pET-24a(+) for E. coli expression with 10×His-Flag-tobacco etch virus (TEV) tags at the N terminus. The pET-24a(+) constructs were transformed into E. coli-competent cells BL21(DE3). […] Expression of protein was induced for 16 h with 0.2 mM IPTG (isopropyl-β-D-thiogalactopyranoside) at 18°C. […] Roche). Cell suspension was sonicated 8 × 20 s at 27 to 30 W (power level, 3.5 to 4.0) with 40-s breaks between each pulse. Lysate was cleared by centrifugation in a 50-ml conical tube at 20,000 × g for 30 min (Fiberlite F13-14 × 50cy rotor in a Sorvall RC6 centrifuge). Supernatant was incubated with Ni-charged MagBeads (GenScript; catalog no. […] Bound proteins were washed with 50 ml binding buffer and eluted in elution buffer containing a gradient of imidazole ranging from 5 to 500 mM. Peak fractions were pooled and stored in 50% glycerol at -80°C. Reactions were carried out in duplicate in 96-well low-profile, skirted, white plates (catalog no. AB0800WL; […] The reaction mixtures were incubated at room temperature for 3 h, and ATP depletion was monitored by using Kinase-Glo luminescent kinase kit following the manufacturer's instructions (catalog no. V6712; Promega, WI, USA).

[12] = test system: HBV RNA poly(A) tails; conditions: Huh-7, 100 nM
[13] = test system: HBV PRE; assay: HBV PRE cis-element reporter plasmids (HBsAg or Gluc) transfected in Huh-7 cells; conditions: Hepatitis B virus

Work on `COCCCOc1cc2c(nc1OC)-c1cc(=O)c(C(=O)O)cn1[C@H](C(C)C)C2` [AB-452] yielded an EC50 ([1]; read-out: HBeAg EC50) of 4 ± 2.3 nM, an EC50 ([1]; read-out: HBsAg EC50) of 6.8 ± 1.8 nM and an EC50 ([2]; read-out: HBV DNA EC50) of 4.2 ± 3.8 nM. The EC50 ([2]; read-out: HBeAg EC50) was 3.7 ± 1.3 nM, the EC50 ([2]; read-out: HBsAg EC50) was 3 ± 2.1 nM and the EC50 ([3]; HepG2.2.15, PLC/PRF/5, HepG2-NTCP, PHH, read-out: HBsAg, HBeAg and HBV DNA EC50 (range over models)) was 0.28 to 6.8 nM. It also gave an EC50 ([3]; abstract, read-out: HBsAg EC50 in vitro (range over models)) of 1.4 to 6.8 nM, an EC50 [4] greater than 30000 nM and an EC50 [5] greater than 30000 nM. For the same compound, the EC50 [6] was greater than 30000 nM, the EC50 [7] was greater than 30000 nM and the EC50 [8] was greater than 30000 nM. For the same compound, the EC50 [9] was greater than 30000 nM, the “sRNA (%) of untreated controls” value [10] was roughly 18% and the IC50 [11] was 94 nM. For the same compound, the “poly(A) tail length of H133_dSLα transcripts” value ([12]; untreated 71) was 62 nucleotides, the “average poly(A) tail length of H133 transcripts” value ([12]; untreated 124) was 64 nucleotides and the “overall guanylation frequency, H133” value ([12]; untreated about 60%) was 24%. The EC50 ([13]; 120 h, read-out: EC50, Gluc_dHBx (Gluc activity)) was 4.2 nM, the EC50 ([13]; 120 h, read-out: EC50, H133_Gluc (Gluc activity)) was 10 nM and the EC50 ([13]; Huh-7, 120 h, read-out: EC50, Gluc_rcSLα (Gluc activity)) was greater than 100 nM. The EC50 ([13]; Huh-7, 120 h, read-out: EC50, H133 (HBsAg)) was 2.5 nM and the EC50 ([13]; Huh-7, 120 h, read-out: EC50, H133_dLa (HBsAg)) was 4.3 nM.
